The nature of data set [1]: Biodistribution of radium-223 in Balb/C mice. The conditions noted are these: for % of injected dose per gram, femur: 9 kBq in isotonic saline. The format is in vivo. The procedure:
(§1) Methods: Young male Balb/C mice with a body weight of 19-21 g were injected with 9 kBq of ^223Ra in 150 μl of isotonic saline. Groups of five animals were sacrificed and dissected at 6 h and 3 days after injection. Sample weight was measured and samples were counted using (A) a “well type” NaI scintillation crystal (Harshaw Chemie BV, De Meern, Holland) combined with a Scaler Timer ST7 (NE Technology Ltd, Reading, UK) digital unit, (B) a Beckman LS 6500 (Beckman Instruments Inc. Fullerton, Calif., USA). Relative abundances of radionuclides were studied in blood, liver, kidney, and in standard samples with mother/daughter in equilibrium, using a Ge-detector (Canberra, Meriden, Conn., USA) combined with an amplifier and bias supply from EG&G Ortec (Oak Ridge, Tenn., USA).

Data set [2] can be described thus: Release of daughter isotopes from fragmented femur washed with PBS. Format: in vivo, mice. The procedure:
To study potential release of daughter isotopes after ^223Ra was incorporated in bone, due to either nuclear recoil or diffusion processes, femurs from five animals killed 6 h, and 5 animals killed 3 days after injection were examined.
Methods: The bones were cleaved longitudinally, to expose the red marrow (spongious) areas, and thereafter cut into small fragments of less than 3 mg. Thereafter the samples were washed with Dulbeccos PBS (Sigma-Aldrich CO. LTD., Irvine, UK) using centrifugation. The supernatant was removed, mixed with scintillation liquid (Insta-Gel 11 plus, Packard BioScience BV, Groningen, The Netherlands) and counted on a scintillation counter (Beckman Instruments Inc. Fullerton, Calif., USA). After one day sample counting was repeated. A difference in counts after correcting for ^223Ra decay between the two measurements was used as indication of release of daughter nuclide(s) from bone matrix.

Data set [3] deals with MT-1 human breast cancer cells. As to the kind of experiment: MT-1/nude rat model of skeletal metastases. The format is in vivo, nude rats. From the text: It has been developed animal models with experimental metastasis pattern resembling those frequently observed in human patients (Engebraaten and Fodstad, 1999). One of these models consists of MT-1 cells injected intracardially into nude rats and is characterized by the consistent development of hind leg paralysis in the animals.
Method: The therapeutic potential of radium-223 was studied in the MT-1/nude rat model where animals were inoculated with 1×10^6 MT-1 human breast cancer cells by injection into the left ventricle of the heart as described (Engebraaten and Fodstad,. 1999). These animals usually develop paralysis caused by growth of tumours in the spine. Groups of 4 and 5 animals each were then treated seven days later by receiving an intravenous injection of 200 μl of a vehicle solution without or with 10 kBq of radium-223 according to the invention.

Data set [4] in a line: Localization Index (211Bi vs 223Ra retention) in femur by gamma spectroscopy. Format: in vivo, mice. The conditions noted are these: average. The procedure: To examine if there was a difference in radioisotope retention between radium-223 and bismuth-211 in bone samples, gamma spectroscopic data for bone versus a standard solution with ^223Ra and daughter radionuclides in equilibrium was studied.
Methods: Gamma spectroscopy with a germanium detector (Canberra, Meriden, Conn., USA) was performed on samples of femur from mice immediately after sacrificing and dissecting the animals. Samples of a standard solution of ^223Ra and daughter radionuclides in equilibrium were studied. The distinct gamma peaks at 351.0 keV (^211Bi) and 154.2 keV (^223Ra) were used. A Localization Index (LI) was determined as follows:
E.g., BBi−^211Bi count rate in bone; SRa−^223Ra count rate in standard
Gamma spectra from five samples from the 6 h group and the 3 days group respectively were compared, to five and three samples from the standard solution respectively, using Student t-test for data columns.

Data set [5] can be described thus: Gamma spectroscopy of the 211Bi:223Ra ratio in tissues versus a standard solution. The format is in vivo, Balb/C mice. The procedure:
as §1
The ratio of ^211Bi: ^223Ra was in the spleen at the 6 hour point on average 54% compared to a standard solution. In liver and kidneys on the other hand, the ^211Bi: ^223Ra ratios in the samples were on the average 256 and 207% of the standards respectively. […] Also the ^211Bi activity in soft tissues was in general very low compared to bone activity of this nuclide. The ^211Bi in the soft tissues may have been generated from ^223Ra present in soft tissues.

In data set [6] the test system is MT-1 human breast cancer cells. The conditions noted are these: treatment seven days after tumour cell inoculation; cited from earlier work.
For data set [7] the following is noted: bone samples; after radium-226 had been administered to dogs; cited from earlier work.

Where “and” joins values, the source holds several entries; their conditions need not be identical. Identical values can stand only once.

For `[223Ra]` [radium-223], in data set [1] (6 h after injection), the “Femur to blood ratio” value was found to be 129 and the “Femur to spleen ratio” value turned out to be 6.4. Moreover, the “Concentration in bone compared to soft tissues” value in data set [1] (6 h and 3 days) is reported as “selectively concentrated in bone”. In data set [1] (3 days after injection), the “Femur to blood ratio” value stood at 691; the “Femur to spleen ratio” value stood at 23.7; the “% of injected dose per gram, femur” value is 34.55 ± 7.87 % of injected dose per gram. Further, in data set [1] (6 hours), the “% of injected dose per gram, blood” value was 0.20 ± 0.23 % of injected dose per gram; the “% of injected dose per gram, brain” value is 0.04 ± 0.01 % of injected dose per gram; the “% of injected dose per gram, heart” value is 0.10 ± 0.10 % of injected dose per gram; the “% of injected dose per gram, kidney” value is given as 4.04 ± 0.33 % of injected dose per gram. Moreover, in data set [1] (6 hours), the “% of injected dose per gram, large intestine” value is given as 2.30 ± 0.60 % of injected dose per gram; the “% of injected dose per gram, liver” value is 0.89 ± 0.18 % of injected dose per gram; the “% of injected dose per gram, lung” value is recorded as 0.59 ± 0.56 % of injected dose per gram; the “% of injected dose per gram, muscle” value was 0.72 ± 0.39 % of injected dose per gram. In addition, in data set [1] (6 hours), the “% of injected dose per gram, small intestine” value is reported as 0.79 ± 0.26 % of injected dose per gram and the “% of injected dose per gram, spleen” value is recorded as 4.06 ± 1.4 % of injected dose per gram. In addition, in data set [1] (3 days), the “% of injected dose per gram, blood” value was 0.05 ± 0.10 % of injected dose per gram; the “% of injected dose per gram, brain” value was 0.12 ± 0.12 % of injected dose per gram; the “% of injected dose per gram, heart” value is reported as 0.06 ± 0.07 % of injected dose per gram; the “% of injected dose per gram, kidney” value is 0.38 ± 0.08 % of injected dose per gram. In data set [1] (3 days), the “% of injected dose per gram, large intestine” value was 0.13 ± 0.02 % of injected dose per gram; the “% of injected dose per gram, liver” value is listed as 0.22 ± 0.32 % of injected dose per gram; the “% of injected dose per gram, lung” value is 0.06 ± 0.07 % of injected dose per gram; the “% of injected dose per gram, muscle” value was 0.30 ± 0.16 % of injected dose per gram. In data set [1] (3 days), the “% of injected dose per gram, small intestine” value is listed as 0.04 ± 0.03 % of injected dose per gram and the “% of injected dose per gram, spleen” value was 1.46 ± 0.54 % of injected dose per gram. Also, in data set [1] (6 hours after injection), the “% of injected dose per gram, femur” value is listed as 25.86 ± 1.99 % of injected dose per gram. The “Activity dissolved in PBS during washing, compared to the total activity in bone” value in data set [2] (animals killed after 6 hours, average) came out at 1.8%. In addition, in data set [2] (animals killed after 6 hours, probably), the “Translocation of daughter isotopes from bone” value is reported as “less than 2%”. Besides, the “Activity of washing solutions counted again, of the bone sample” value in data set [2] (animals killed after 6 hours, recounted after 12 h, average) is 0.2%. Also, in data set [2] (animals killed after 3 days), the “Counts in the washing solution compared to the background” value is on record as “no significant counts”. Moreover, in data set [2] (animals killed after 3 days, estimated detection limit), the “Translocation, below detection limit, of the total bone radioactivity” value is recorded as “less than 1%”. In data set [3] (10 kBq i.v.), the “Anti-tumour effect in animals with skeletal metastases” value was “significant anti-tumour effect”. In addition, the “Time to paralysis after tumour cell inoculation (individual animals)” value in data set [3] (10 kBq i.v. seven days after inoculation, group of five animals, listed as 223Ra) is 26 days and 40 days and 64 days. The “Survival without signs of paralysis, two remaining animals (follow-up period)” value in data set [3] (10 kBq i.v. seven days after inoculation, two of five animals) is ≥ 90 days. Also, in data set [4] (6 h point, P=0.059), the “Localization Index LI=(BBi/SBi)/(BRa/SRa)” value stood at 0.85. Moreover, in data set [4] (3 day point, P=0.749), the “Localization Index LI=(BBi/SBi)/(BRa/SRa)” value was 0.97. In addition, the “Difference in relative distribution of radium-223 and its daughters (abundance of 211Bi)” value in data set [5] (bone and most soft tissues, gamma spectroscopy) is “no significant difference”. In addition, in data set [5] (kidneys, average), the “Ratio of 211Bi:223Ra, % of the standards” value is recorded as 207%. Besides, the “Ratio of 211Bi:223Ra, % of the standards” value in data set [5] (liver, average) is 256%. Moreover, the “Ratio of 211Bi:223Ra compared to a standard solution” value in data set [5] (spleen, 6 hour point, average) came out at 54%.

Turning to `N.N.[Cl][Pt][Cl]` [cisplatin], the Effect on survival result in data set [6] is given as “did not improve survival”.

In the case of `[226Ra]` [radium-226], the “Radon-222 escaped from the bone” value in data set [7] is reported as 89.5-94.25%.

Turning to `COc1cccc2c1C(=O)c1c(O)c3c(c(O)c1C2=O)C[C@@](O)(C(=O)CO)C[C@@H]3O[C@H]1C[C@H](N)[C@H](O)[C@H](C)O1` [doxorubicin], the Effect on survival entry in data set [6] is on record as “did not improve survival”.

The values are drawn from US6635234B1, “Preparation and use of radium-223 to target calcified tissues for pain palliation, bone cancer therapy, and bone surface conditioning” (Anticancer Therapeutic Inventions AS, priority 1999, dated 2003).
